Data on 3 molecules can be found in US11208418B2, “Nitrogenous tricyclic compounds and uses thereof in medicine” (SUNSHINE LAKE PHARMA CO., LTD., priority 2018, dated 2021).

Data set [1] in a line: Liver microsome stability test. Type of data set: in vitro ADME. Conditions: rat liver microsomes, compound 1 μM, 0.5 mg/mL microsome, 37° C.; for half-life at 1 μM: pH 7.4. The procedure: The solution of compound in DMSO (10 mM) was diluted with a mixed solvent of acetonitrile and water (1:1, v/v) to get a 100 μM compound solution, and then the 100 μM compound solution was diluted with potassium phosphate buffer (0.1 M, pH 7.4) to get a 3 μM compound solution. NADPH was formulated with potassium phosphate buffer (0.1 M, pH 7.4) to NADPH solution (6 mM). Rat liver microsome was formulated with potassium phosphate buffer (0.1 M, pH 7.4) to liver microsome solution (1.5 mg/mL).
The total volume of incubation mixture was 45 μL, including 15 μL rat liver microsome solution (1.5 mg/mL), 15 μL compound solution (3 μM) and 15 μL NADPH solution (6 mM), the final concentration of liver microsome in the incubation mixture was 0.5 mg/mL, the compound concentration was 1 μM, the NADPH concentration was 2 mM.
The incubation mixture was incubated at 37° C. The reaction was terminated by adding 120 μL acetonitrile solution containing internal standard at different time points (20 min and 60 min), and centrifuged at 4000 rpm for 5 min. The supernatant was took out and analyzed by LC-MS/MS.
At the same time, a parallel incubation test was set up, using inactivated rat liver microsomes as negative control and verapamil at the same concentration as positive control. The reaction was incubated at 37° C. and terminated at different time points (20 minutes and 60 minutes).
The ratio of sample peak area to internal standard peak area was obtained by analyzing through LC/MS/MS, the drug content of the negative control was as 100%, the drug relative content at each time point was calculated. The rate constant was obtained by plotting based on “Log[compound concentration]” to “incubating time”, and then the half-life T1/2 and intrinsic clearance CLHep of the compound were calculated.

Data set [2] can be described thus: Pharmacokinetic test in SD rats. It counts as in vivo. The following applies: male, rat, plasma. The protocol:
Experimental animals: 6 healthy male adult SD rats (purchased from Hunan SJA Laboratory Animal Co.; Ltd) were randomized into 2 groups, 3 in each group, the groups were administered by intravenous injection and gavage respectively.
Preparation of drugs: an amount of the compound was scaled, and the target concentrate of the compound was prepared by addition of 5% DMSO, 10% Kolliphor HS15 and 85% saline (0.9%).
Administration and samples collection: the animals were fasted 12 hours before administration and provided again 3 hours post-administration, SD rats were administrated by intravenous injection from hindlimb peduncular veins (1 mg/kg) and by gavage (PO, 5 mg/kg). 200-400 μL of blood was collected at different time points 0, 0.083, 0.25, 0.5, 1, 2, 4, 6, 8, 24 h from rats tail vein. Blood collection was 200-400 μL per time point. The blood collected at each time point was placed in K2EDTA anticoagulant tube, and stored at a couveuse with ice bags. All the samples in 15 min were centrifuged at 4600 r/min at 4° C. for 5 min, plasma samples were obtained, the concentrates of compound in the plasma samples were determined by LC/MS/MS, the pharmacokinetic parameters were calculated based on the drug concentration-time curve.

In data set [3] the target is farnesoid X receptor protein (Homo sapiens (Human), UniProt Q96RI1). The data set can be described thus: Coactivation of TR-FRET farnesoid X receptor protein (Invitrogen PV4833 Kit). Type of data set: biochemical. Conditions: TR-FRET coactivator recruitment, Fluorescein-SRC2-2, 1 hour at room temperature.
Sequence of farnesoid X receptor protein (Q96RI1 262-486, other chains not shown): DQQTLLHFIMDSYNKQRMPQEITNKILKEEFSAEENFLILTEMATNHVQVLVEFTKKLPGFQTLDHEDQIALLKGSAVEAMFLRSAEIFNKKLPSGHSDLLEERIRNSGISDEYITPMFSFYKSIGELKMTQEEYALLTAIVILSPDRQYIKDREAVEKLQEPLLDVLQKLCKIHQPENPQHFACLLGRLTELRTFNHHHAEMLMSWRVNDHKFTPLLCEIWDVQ
Experimental: Purchasing Invitrogen PV4833 Kit.
Step 1, the compound was weighed and dissolved in 100% DMSO, the highest concentration is 3000 μM, and then diluted with DMSO by 3-fold serial dilution to get 10 concentrations.
Step 2, the above formulated compound solutions were diluted 100 times with the buffer provided in the kit, which were mixed respectively and 10 μL of which were added into a 384 well plate in turn.
Step 3, FXR recombinant nucleo receptor protein was diluted with a buffer to formulate 4× concentration, and 5 μL of which was added into the above 384 well plate containing the compound.
Step 4, Fluorescein-SRC2-2 and Tb anti-GST antibody were diluted with a buffer respectively, both concentration are 4×, after the two reagents were mixed together, 10 μL of which was added into the 384 well plate described in step 3.
At last, the solution in the 384 well plate was blend by centrifugation, and then incubated at room temperature for 1 hour.

For `O=C(O)c1ccc2c(c1)Oc1ccc(OCc3c(-c4ccccc4OC(F)(F)F)noc3C3CC3)nc1CC2` [Example 2, 2-((5-cyclopropyl-3-(2-(trifluoromethoxy)phenyl)isoxazol-4-yl)methoxy)-10,11-dihydrobenzo[6,7]oxepino[3,2-b]pyridine-7-carboxylic acid], in data set [1], the half-life at 1 μM was 28.8 min and the ClHep worked out at 86.33 mL/min/kg.

`O=C(O)c1ccc2c(c1)Oc1ccc(OCc3c(-c4ccccc4OC(F)(F)F)noc3C3CC3)nc1C1(CC1)C2` [Example 3, 2-((5-cyclopropyl-3-(2-(trifluoromethoxy)phenyl)isoxazol-4-yl)methoxy)-10H-Spiro[benzo[6,7]oxepino[3,2-b]pyridine-11,1′-cyclopropane]-7-carboxylic acid]: in data set [2] (iv, 1 mg/kg), the AUC(0-inf) was found to be 1740 ng·h/mL, the AUC(0-t) worked out at 1730 ng·h/mL, the maximum concentration (Cmax) was 1660 ng/mL and the mean residence time MRT inf was found to be 60.6 min. In data set [2] (iv, 1 mg/kg), the time to peak (Tmax) worked out at 4.98 min, the clearance amounted to 9.62 mL/min/kg and the half-life was 46.4 min. Moreover, in data set [2] (iv, 1 mg/kg, read-out: Vss), the Vd came out at 0.584 L/kg. In data set [2] (po 5 mg/kg versus iv 1 mg/kg), the bioavailability is 71.3%. In data set [2] (po, 5 mg/kg), this molecule gave an AUC(0-inf) of 6210 ng·h/mL, an exposure AUC(0-t) of 6170 ng·h/mL, a Cmax of 2320 ng/mL and an MRT inf of 103 min. Further, in data set [2] (po, 5 mg/kg), the Tmax is 60 min and the half-life was 53.5 min. For the same molecule, the 50% effective concentration (EC50) in data set [3] stood at 8.6 nM. Moreover, in data set [1], the half-life at 1 μM is 26.8 min and the ClHep is 92.61 mL/min/kg.

In data set [1], `O=C(O)c1ccc2c(c1)Oc1ccc(OCc3c(-c4ccc(Cl)cc4Cl)noc3C3CC3)nc1C1(CC1)C2` [Example 5, 2-((5-cyclopropyl-3-(2,4-dichlorophenyl)isoxazol-4-yl)methoxy)-10H-spiro[benzo[6,7]oxepino[3,2-b]pyridine-11,1′-cyclopropane]-7-carboxylic acid] displayed a half-life at 1 μM of 25 min and a ClHep of 99.23 mL/min/kg.
